From patent publication US20120208781A1, “AMINOGLYCOSIDE DOSING REGIMENS” (Achaogen, Inc., priority 2009, published 2012)
Converted amounts (≈) assume the structure as drawn.

Assays:
cochlear hair cells = experiment: Cytocochleogram analysis in 28-day guinea pig ototoxicity model; format: in vivo, guinea pigs
Experimental: Following euthanasia and whole body intravascular perfusion with 4% paraformaldehyde, the temporal bones of the left and right ears were removed. Gross middle ear assessments were performed using a dissecting microscope. […] Following gross middle ear assessment, the cochleas of the left ear were fixed by intrascalar perfusion with 4% paraformaldehyde. Cochlea tissues of both ears were placed in 4% paraformaldehyde for approximately 1 hour. Tissues were then transferred to 0.5% paraformaldehyde, stored refrigerated, and shipped on gel packs to the Kresge Hearing Research Institute, Ann Arbor, Mich., for further processing and cytocochleogram analysis.
These guinea pig ototoxicity studies also included microscopic analysis of surgically dissected cochleas from each animal to assess hair cell damage (cytocochleograms). The underlying cause of aminoglycoside related hearing loss is damage to the hair cells of the auditory system after significant accumulation of aminoglycosides in the inner ear. In the cochlea, drug-induced hair cell loss typically progresses from the basal to the apical turns of the cochlea. Perception of high-frequency sounds, a function of the basal hair cells, is lost first; perception of low-frequency sounds, a function of the more apical hair cells, is the last to be lost (Selimoglu, E., Curr Pharm Des. 2007; 13(1):119-26). For obvious reasons, it is impractical to obtain cytocochleograms from each animal prior to dosing, and some hair cell loss is usually observed in control (vehicle dosed) animals in these guinea pig studies. This variability makes it difficult to determine whether hair cell loss observed post-treatment is due to the drug treatment, especially mild hair cell loss, […]

[1] = GLP 14-day repeat-dose safety study in rat; format: in vivo
From the text: The Food and Drug Administration (FDA) has provided general guidance for estimating the maximum recommended starting dose (MRSD) for initial human clinical trials. The guidance states that the MRSD must be derived from the no observable adverse effect level (NOAEL) obtained in Good Laboratory Practice (GLP) nonclinical animal safety studies. The NOAEL for Compound 1 has been determined in GLP 14-day repeat-dose safety studies in both rat and dog. Estimation of the human equivalent dose (HED) at the NOAEL is based on both a surface area conversion factor (SACF) and the data from these studies. Based on this standard methodology, the HED for the predicted NOAEL in each species has been determined and is presented in Table 18.

S. aureus (SA) = experiment: MIC, CLSI broth microdilution, worldwide isolates: S. aureus; format: cell-based
From the text: In the first study, a total of 235 isolates were collected from medical centers worldwide and tested for susceptibility to Compound 1 and comparator agents by CLSI broth microdilution methods. […] Non-ENT GN pathogens included WT P. aeruginosa (PSA) and Acinetobacter spp. (ACB), and carbapenem (CARB)-R strains, including those with MBL and OXA enzymes, SA and coagulase-negative staphylococci (CoNS) included oxacillin-susceptible (MSSA/MS-CoNS) and —R (MRSA/MR-CoNS) strains.
Minimum inhibitory concentrations (MIC) were determined by reference Clinical and Laboratory Standards Institute (CLSI) broth microdilution methods per M7-A7 [2006]. Briefly, serial two-fold dilutions of Compound 1 and comparator AGs (together, “the test compounds”) were prepared at 2× concentration in appropriate diluent. The dilutions were mixed in 96-well assay plates with bacterial inoculum. Bacteria were suspended in sterile saline and added to each assay plate to obtain a final concentration of 5.5×10^5 CFU/mL. The plates were incubated at 35° C. for 20 hours in ambient air. […] After incubation, assay plates were read using a microtiter plate reader at 600 nm.

[2] = Phase 1 study 15 mg/kg/day once daily for five days: pharmacokinetics; format: in vivo; conditions: human
Experimental: An additional randomized, double-blind, placebo-controlled study was performed to assess the safety and pharmacokinetics of Compound 1 following IV administration to healthy adult volunteers according to a high dose, short course regimen of 15 mg/kg/day of Compound 1 administered once daily for five days. Compound 1 was formulated as a sterile solution at a concentration of 50 mg/mL in 10 mL glass vials for intravenous (IV) administration (“Compound 1 Injection”). Eight healthy subjects were randomized to receive either Compound 1 Injection or placebo administered IV by 10 minute infusion daily for five days. Seven subjects received 5 doses and one received 3 doses (early withdrawal for personal reasons).

[3] = In vitro stability in plasma, microsomes and hepatocytes; format: in vitro ADME; conditions: liver microsomes and hepatocytes
Experimental: Bioanalytical data analyses were carried out using Analyst software (version 1.4.1, Applied Biosystems, Toronto, ON, Canada). […] PK parameters were determined by noncompartmental analysis using WinNonLin. Plasma protein binding was determined using equilibrium dialysis. In vitro stability was determined using commercially available plasma, microsomes and hepatocytes.

A. baumannii (AB) = experiment: MIC, broth microdilution, Brooklyn hospital isolates: A. baumannii; format: cell-based
Experimental: In another study, the activity of Compound 1 against a collection of contemporary Gram-negative bacteria was determined. Unique patient isolates of P. aeruginosa (PA), A. baumannii (AB), K. pneumoniae (KP), E. coli (EC), and Enterobacter spp. (EB) from prior surveys at 16 Brooklyn, N.Y. hospitals were selected based on resistance patterns. The majority of isolates were fingerprinted by automated ribotyping. MICs were performed by broth microdilution. PCR was used to identify aminoglycoside-modifying enzymes (AMEs) in AB and KP and the KPC gene in Enterobacteriaceae (EN). The expression of the efflux genes mexA, C, E and X in PA, and adeB in AB was assessed by real-time RT-PCR.

[4] = Staphylococcus aureus, SA isolates
[5] = after 5 days of once-daily IV 15 mg/kg
[6] = plasma, after 5 days of once-daily IV 15 mg/kg
[7] = Acinetobacter baumannii, AB (n = 38)

In the case of CN[C@@H]1[C@@H](O)[C@@H](O[C@@H]2[C@@H](O)[C@H](O[C@H]3OC(CNCCO)=CC[C@H]3N)[C@@H](N)C[C@H]2NC(=O)[C@@H](O)CCN)OC[C@]1(C)O [Compound 1, 6′-(2-Hydroxy-ethyl)-1-(4-amino-2(S)-hydroxy-butyryl)-sisomicin], the “animals with a few spikes of minimal hair cell loss” value (cochlear hair cells; guinea pigs, 8 mg/kg) is reported as 2/8, the “animals with minimal to moderate outer hair cell loss at the apical end or middle region” value (cochlear hair cells; guinea pigs, 30 mg/kg) is reported as 3/8 and the “animals with large loss of outer hair cells across the length of the cochlea” value (cochlear hair cells; guinea pigs, 80 mg/kg) is reported as “One of 8”. The “animals with minimal loss of both inner and outer hair cells at the mid-cochlea or apical end” value (cochlear hair cells; guinea pigs, 80 mg/kg) was 2/8, the “dose-response of hair cell loss” value (cochlear hair cells; guinea pigs, 8, 30, 80 mg/kg) was “no dose-response of hair cell loss” and the HED ([1]; from rat NOAEL, SACF 6.2) was 1.3 mg/kg. The “new toxicities” value ([1]; nonclinical GLP safety studies in rats) was “no new toxicities apart from those already known to the class”, the NOAEL at 14 days ([1]; rat, in vivo) was 8 mg/kg and the “Cumulative % inhibited at Cmpd. MIC 1” value (S. aureus (SA); SA (30)) was 96.7%. The “Cumulative % inhibited at Cmpd. MIC 2” value (S. aureus (SA); SA (30)) was 100.0%, the “Cumulative % inhibited at Cmpd. MIC ≦0.5” value (S. aureus (SA); SA (30)) was 66.7% and the “Cumulative % inhibited at Cmpd. MIC 1” value (S. aureus (SA); SA, MRSA (20)) was 100.0%. For the same compound, the “Cumulative % inhibited at Cmpd. MIC ≦0.5” value (S. aureus (SA); SA, MRSA (20)) was 60.0%, the “Cumulative % inhibited at Cmpd. MIC 1” value (S. aureus (SA); SA, MSSA (10)) was 90.0% and the “Cumulative % inhibited at Cmpd. MIC 2” value (S. aureus (SA); SA, MSSA (10)) was 100.0%. For the same compound, the “Cumulative % inhibited at Cmpd. MIC ≦0.5” value (S. aureus (SA); SA, MSSA (10)) was 80.0%, the MIC50 (S. aureus (SA); [4]) was ≤ 0.25 µg/mL and the MIC90 (S. aureus (SA); [4]) was 0.5 µg/mL (≈ 0.844 µM). The “area under the plasma concentration-time curve” value [2, 5] was 239 µg·h/mL, the fluctuation index [2, 5] was > 1000% and the “trough (Cmin)” value [2, 5] was 0.4 µg/mL. For the same compound, the drug accumulation ([2]; once-daily dosing for up to 5 days) was “lack of appreciable drug accumulation”, the AUC ([2]; plasma, intravenous, 15 mg/kg, read-out: average AUC in humans) was ~240 µg·h/mL and the clearance [2, 6] was 1.1 mL/min/kg. The half-life [2, 6] was ~3 h, the Cmax ([2]; plasma, after 5 days of once-daily IV 15 mg/kg, read-out: peak (Cmax)) was 113 µg/mL and the Vd ([2]; plasma, after 5 days of once-daily IV 15 mg/kg, read-out: steady state volume of distribution) was 0.24 L/kg. For the same compound, the in vitro stability [3] was “stable”, the “isolates with Compound 1 MICs >8” value (A. baumannii (AB); AB isolates with increased expression of adeB) was 69% and the “isolates with Compound 1 MICs>4” value (A. baumannii (AB); AB isolates with the AME aacA4) was 93%. For the same compound, the “isolates with Compound 1 MICs >8” value (A. baumannii (AB); AB isolates without increased expression of adeB) was 13%, the “isolates with Compound 1 MICs>4” value (A. baumannii (AB); AB isolates without the AME aacA4) was 50% and the MIC50 (A. baumannii (AB); [7]) was 8 µg/mL (≈ 13.5 µM). The MIC90 (A. baumannii (AB); [7]) was > 16 µg/mL and the MIC (A. baumannii (AB); Acinetobacter baumannii, AB isolates without AMEs, read-out: MICs achieved by some isolates) was > 16 µg/mL.
